Measured values: patent US9776979B2, “EBI2 modulators” (Sanford-Burnham Medical Research Institute, priority 2013, dated 2017)

Target: EBI2 (Homo sapiens, UniProt P32249)
Experiment: Cell-based luminescent assay (EBI2 modulation)
Conditions: cell-based luminescence; 7a,25-OHC final assay concentration 80 nM; 60 minutes incubation; read-out: IC50
Summary of the method: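 Cells plated overnight at 37° C, then exposed to compound at 4-5 uM final with 80 nM 7a,25-OHC agonist for 60 min at 37° C. Luminescence read after 60 min detection at 25° C in the dark; values normalized to neutral and stimulator controls and plate-pattern corrected.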

Chain of EBI2 (P32249 whole entry): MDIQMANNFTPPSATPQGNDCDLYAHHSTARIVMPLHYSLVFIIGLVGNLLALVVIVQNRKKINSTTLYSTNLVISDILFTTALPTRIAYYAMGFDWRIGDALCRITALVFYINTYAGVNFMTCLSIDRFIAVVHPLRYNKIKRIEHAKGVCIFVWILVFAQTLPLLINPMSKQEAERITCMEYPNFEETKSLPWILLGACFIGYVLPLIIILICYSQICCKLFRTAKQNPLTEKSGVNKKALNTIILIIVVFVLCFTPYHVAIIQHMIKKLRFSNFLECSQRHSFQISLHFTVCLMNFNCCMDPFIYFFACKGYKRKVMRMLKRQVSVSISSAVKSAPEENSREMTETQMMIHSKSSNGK

| IC50 [nM] | Compound |
| --- | --- |
| < 100 | O=C(C#Cc1cccc(Cl)c1)N1CCN(C(=O)c2ccc(C(F)(F)F)cc2)CC1 [Compound C117, 3-(3-chlorophenyl)-1-(4-{[4-(trifluoromethyl)phenyl]carbonyl}piperazinyl)prop-2-yn-1-one] |
| < 100 | CC(C)CC(=O)N1CCN(C(=O)/C=C/c2ccc(Br)cc2)CC1 [Compound C118, (2E)-3-(4-bromophenyl)-1-[4-(3-methylbutanoyl)piperazinyl]prop-2-en-1-one] |
| < 100 | O=C(c1ccc(F)cc1)N1CCN(C(=O)c2cc3cc(Cl)ccc3[nH]2)CC1 [Compound C119, 5-chloroindol-2-yl 4-[(4-fluorophenyl)carbonyl]piperazinyl ketone] |
| < 100 | O=C(C#Cc1ccc2c(c1)OCO2)N1CCN(C(=O)c2ccc(Br)cc2)CC1 [Compound C120, 3-(2H-benzo[3,4-d]1,3-dioxolen-5-yl)-1-{4-[(4-bromophenyl)carbonyl]piperazinyl}prop-2-yn-1-one] |
| < 100 | Cc1ccc(C#CC(=O)N2CCN(Cc3ccc(F)cc3)CC2)cc1 [Compound C122, 1-{4-[(4-fluorophenyl)methyl]piperazinyl}-3-(4-methylphenyl)prop-2-yn-1-one] |
| < 100 | O=C(c1cc2ccccc2s1)N1CCN(C(c2ccccc2)c2ccccc2)CC1 [Compound C123, benzo[b]thiophen-2-yl 4-(diphenylmethyl)piperazinyl ketone] |
| < 100 | Cc1ccc(S(=O)(=O)N2CCN(C(=O)/C=C/c3ccc(F)cc3)CC2)cc1 [Compound C124, (2E)-3-(4-fluorophenyl)-1-{4-[(4-methylphenyl)sulfonyl]piperazinyl}prop-2-en-1-one] |
| < 100 | O=C(c1cnc2ccccc2c1)N1CCN(C(c2ccccc2)c2ccccc2)CC1 [Compound C125, 4-(diphenylmethyl)piperazinyl 3-quinolyl ketone] |
| < 100 | O=C(c1cc2cc(F)ccc2[nH]1)N1CCN(C(c2ccccc2)c2ccccc2)CC1 [Compound C126, 4-(diphenylmethyl)piperazinyl 5-fluoroindol-2-yl ketone] |
| < 100 | O=C(c1cccc(Cl)c1)N1CCN(C(=O)c2cc3cc(C(F)(F)F)ccc3[nH]2)CC1 [Compound C127, 4-[(3-chlorophenyl)carbonyl]piperazinyl 5-(trifluoromethyl)indol-2-yl ketone] |
| < 100 | O=C(C#Cc1ccc(F)cc1)N1CCN(C(=O)c2ccc(F)cc2)CC1 [Compound C128, 3-(4-fluorophenyl)-1-{4-[(4-fluorophenyl)carbonyl]piperazinyl}prop-2-yn-1-one] |
| < 100 | O=C(C#Cc1cccc(Cl)c1)N1CCN(Cc2ccc(F)cc2)CC1 [Compound C129, 3-(3-chlorophenyl)-1-{4-[(4-fluorophenyl)methyl]piperazinyl}prop-2-yn-1-one] |
| < 100 | O=C(/C=C/c1ccc(Br)cc1)N1CCN(Cc2ccc(F)cc2C(F)(F)F)CC1 [Compound C131, (2E)-3-(4-bromophenyl)-1-(4-{[4-fluoro-2-(trifluoromethyl)phenyl]methyl}piperazinyl)prop-2-en-1-one] |
| < 100 | O=C(C#Cc1cccc(Cl)c1Cl)N1CCN(C(=O)c2ccc(C(F)(F)F)cc2)CC1 [Compound C132, 3-(2,3-dichlorophenyl)-1-(4-{[4-(trifluoromethyl)phenyl]carbonyl}piperazinyl)prop-2-yn-1-one] |
| < 100 | O=C(c1ccc(C(F)(F)F)cc1)N1CCN(C(=O)c2cc3cc(C(F)(F)F)ccc3[nH]2)CC1 [Compound C133, 5-(trifluoromethyl)indol-2-yl 4-{[4-(trifluoromethyl)phenyl]carbonyl}piperazinyl ketone] |
| < 100 | O=C(c1ccc(F)cc1)N1CCN(C(=O)c2cc3cc(Br)ccc3[nH]2)CC1 [Compound C135, 5-bromoindol-2-yl 4-[(4-fluorophenyl)carbonyl]piperazinyl ketone] |
| < 100 | O=C(NCC1CCN(C(=O)/C=C/c2ccc(Br)cc2)CC1)c1ccc(F)cc1 [Compound C136, N-({1-[(2E)-3-(4-bromophenyl)prop-2-enoyl](4-piperidyl)}methyl)(4-fluorophenyl)carboxamide] |
| < 100 | O=C(C#Cc1ccc(C(F)(F)F)cc1)N1CCN(Cc2ccc(Cl)cc2)CC1 [Compound C137, 1-{4-[(4-chlorophenyl)methyl]piperazinyl}-3-[4-(trifluoromethyl)phenyl]prop-2-yn-1-one] |
| < 100 | O=C(/C=C/c1ccc(F)cc1)N1CCN(S(=O)(=O)c2cccc(Cl)c2)CC1 [Compound C138, (2E)-1-{4-[(3-chlorophenyl)sulfonyl]piperazinyl}-3-(4-fluorophenyl)prop-2-en-1-one] |
| < 100 | O=C(C#Cc1ccccc1)N1CCN(C(c2ccccc2)c2ccccc2)CC1 [Compound C139, 1-[4-(diphenylmethyl)piperazinyl]-3-phenylprop-2-yn-1-one] |

More lines, now with the values behind:

| Compound | IC50 [nM] |
| --- | --- |
| O=C(/C=C/c1ccc(Br)cc1)N1CCN(Cc2ccc(Cl)cc2C(F)(F)F)CC1 [Compound C91, (2E)-3-(4-bromophenyl)-1-(4-{[4-chloro-2-(trifluoromethyl)phenyl]methyl}piperazinyl)prop-2-en-1-one] | < 100 |
| O=C(C#Cc1cccc(Cl)c1)N1CCN(C(c2ccccc2)c2ccccc2)CC1 [Compound C92, 1-[4-(diphenylmethyl)piperazinyl]-3-(3-chlorophenyl)prop-2-yn-1-one] | < 100 |
| O=C(/C=C/c1ccc(F)cc1)N1CCN(S(=O)(=O)/C=C/c2ccccc2)CC1 [Compound C95] | < 100 |
| O=C(/C=C/c1ccc(F)cc1)N1CCN(S(=O)(=O)c2ccc(Cl)cc2)CC1 [Compound C96, (2E)-1-{4-[(4-chlorophenyl)sulfonyl]piperazinyl}-3-(4-fluorophenyl)prop-2-en-1-one] | < 100 |
| COc1ccc2[nH]c(C(=O)N3CCN(C(c4ccccc4)c4ccccc4)CC3)cc2c1 [Compound C97, 4-(diphenylmethyl)piperazinyl 5-methoxyindol-2-yl ketone] | < 100 |
| CCCCC(=O)N1CCN(C(=O)/C=C/c2ccc(Br)cc2)CC1 [Compound C98, (2E)-3-(4-bromophenyl)-1-(4-pentanoylpiperazinyl)prop-2-en-1-one] | < 100 |
| O=C(/C=C/c1ccccc1)N1CCN(C(=O)/C=C/c2ccccc2)CC1 [Compound C99, (2E)-1-[4-((2E)-3-phenylprop-2-enoyl)piperazinyl]-3-phenylprop-2-en-1-one] | < 100 |
| O=C(/C=C/c1ccc(F)cc1)N1CCN(S(=O)(=O)c2ccccc2Br)CC1 [Compound C100, (2E)-1-{4-[(2-bromophenyl)sulfonyl]piperazinyl}-3-(4-fluorophenyl)prop-2-en-1-one] | < 100 |
| N#Cc1ccc(C(=O)N2CCN(C(=O)c3cc4cc(C(F)(F)F)ccc4[nH]3)CC2)cc1 [Compound C102, 4-[(4-{[5-(trifluoromethyl)indol-2-yl]carbonyl}piperazinyl)carbonyl]benzenecarbonitrile] | < 100 |
| CC(C)c1ccc(CN2CCN(C(=O)/C=C/c3ccc(Br)cc3)CC2)cc1 [Compound C103, (2E)-3-(4-bromophenyl)-1-(4-{[4-(methylethyl)phenyl]methyl}piperazinyl)prop-2-en-1-one] | < 100 |
| O=C(c1cc2ccc(Cl)cc2[nH]1)N1CCN(C(c2ccccc2)c2ccccc2)CC1 [Compound C104, 4-(diphenylmethyl)piperazinyl 6-chloroindol-2-yl ketone] | < 100 |
| Cc1ccc2c(c1)cc(C(=O)N1CCN(C(c3ccccc3)c3ccccc3)CC1)n2C [Compound C105, 1,5-dimethylindol-2-yl 4-(diphenylmethyl)piperazinyl ketone] | < 100 |
| O=C(/C=C/c1ccc(F)c(F)c1)N1CCN(C(c2ccccc2)c2ccccc2)CC1 [Compound C106, (2E)-3-(3,4-difluorophenyl)-1-[4-(diphenylmethyl)piperazinyl]prop-2-en-1-one] | < 100 |
| Cc1cc(C)cc(CN2CCN(C(=O)/C=C/c3ccc(Br)cc3)CC2)c1 [Compound C109, (2E)-1-{4-[(3,5-dimethylphenyl)methyl]piperazinyl}-3-(4-bromophenyl)prop-2-en-1-one] | < 100 |
| O=C(c1ccc2ncccc2c1)N1CCN(C(c2ccccc2)c2ccccc2)CC1 [Compound C110, 4-(diphenylmethyl)piperazinyl 6-quinolyl ketone] | < 100 |
| Cc1ccc2[nH]c(C(=O)N3CCN(Cc4ccc5c(c4)OCO5)CC3)cc2c1 [Compound C111, 4-(2H-benzo[d]1,3-dioxolan-5-ylmethyl)piperazinyl 5-methylindol-2-yl ketone] | < 100 |
| O=C(C#Cc1ccc2c(c1)OCO2)C1CCN(C(=O)c2ccc(F)cc2)CC1 [Compound C112, 3-(2H-benzo[3,4-d]1,3-dioxolen-5-yl)-1-{1-[(4-fluorophenyl)carbonyl](4-piperidyl)}prop-2-yn-1-one] | < 100 |
| O=C(/C=C/c1ccccc1F)N1CCN(C(c2ccccc2)c2ccccc2)CC1 [Compound C113, (2E)-1-[4-(diphenylmethyl)piperazinyl]-3-(2-fluorophenyl)prop-2-en-1-one] | < 100 |
| O=C(C#Cc1ccc2c(c1)OCO2)N1CCN(C(=O)c2ccc(Cl)cc2)CC1 [Compound C114, 3-(2H-benzo[3,4-d]1,3-dioxolen-5-yl)-1-{4-[(4-chlorophenyl)carbonyl]piperazinyl}prop-2-yn-1-one] | < 100 |
| O=C(c1ccc(I)cc1)N1CCN(C(=O)c2cc3cc(Cl)ccc3[nH]2)CC1 [Compound C115, 5-chloroindol-2-yl 4-[(4-iodophenyl)carbonyl]piperazinyl ketone] | < 100 |
| O=C(C#Cc1ccccc1)N1CCN(C(=O)c2ccc(F)cc2)CC1 [Compound C116, 1-{4-[(4-fluorophenyl)carbonyl]piperazinyl}-3-phenylprop-2-yn-1-one] | < 100 |
| O=C(/C=C/c1ccc(Br)cc1)N1CCN(Cc2ccc(Cl)cc2F)CC1 [Compound C130, (2E)-3-(4-bromophenyl)-1-{4-[(4-chloro-2-fluorophenyl)methyl]piperazinyl}prop-2-en-1-one] | < 100 |
